Assays:
[1] = test system: vascular intimal hyperplasia resulted from vascular injury due to the cuff; test: Mouse cuff-induced injury model, Example 3-2 (EVG staining); format: in vivo, C57BL6/N mice; conditions: for I/M ratio (mean ± S.D.): EVG staining, 5 weeks after cuff; for ratio of I/M (intima/media) compared with the control group: Example 3-2
Method: Vascular remodeling analysis was performed by using a cuff-induced injury model. Usefulness of this model in relation to vascular remodeling has been reported (Physiol. Genomics, 2, pp.13-30, 2000; Circulation, 104, pp.2716-2721; Circulation, 106, pp.847-853, 2002). For this experiment, 8-week old male C57BL6/N mice (10 animals/group) were used. In an amount of 100 or 200 mg/kg of NIK-333 or 5 or 10 mg/kg of ATRA suspended in soybean oil was orally given once daily every day from 7 days before placement of a cuff (placement of polyethylene tube around blood vessel) to the day before sacrifice. The control group were received soybean oil alone in the same manner. After the 7-day pretreatment, the right femoral artery was covered with PE50 (polyethylene tube 50, outer diameter: 0.965 mm, length: about 1.5 mm) as a cuff. The animals were sacrificed after 5 weeks. Blood was collected, and the cuff was removed under perfusion fixation via puncture of the left ventricle. For pathological evaluation, Elastica van Gieson (EVG) staining was performed. As a result, the ratio of I/M (intima/media) in vascular intimal hyperplasia resulted from vascular injury due to the cuff decreased in the NIK-333 treatment groups compared with the control group.

[2] = test system: Fibroblast-derived 3T3 cells; test: Cell growth of fibroblast 3T3 (living cell count); format: cell-based
Method: Fibroblast-derived 3T3 cells were seeded on a 24-well plate at a rate of 1×10^6 cells/well and left for 12 hours. Then, NIK-333 and ATRA were added at 10^−7 to 10^−4 M, and living cells were counted 24, 36 and 48 hours later. NIK-333 and ATRA were dissolved in DMSO.

[3] = Influence on mouse testes weight and body weight; format: in vivo, C57BL6/N mice
Method: Eight-week old male C57BL6/N mice (10 animals/group) were used. In an amount of 50 mg/kg or 100 mg/kg of NIK-333 dissolved in soybean oil was orally given once daily every day for 5 weeks. The control group received soybean oil alone in the same manner. Body weights were measured after 5 weeks. The animals were sacrificed, then the testes were observed by visual observation, and the testes weights were measured.

[4] = test system: 3T3-KLF5 cells; test: Growth of cells with stable KLF5 (living cell count); format: cell-based; conditions: for living cell count: 10^−8 to 10^−5 M, 24 hours, serum-free, FIG. 5
Method: (§1) “3T3-KLF5 cells”, cells in which KLF5 was stably expressed (obtained by subcloning cDNA of KLF5 in a 3×FLAG expression vector to prepare a construct of 3×FLAG-KLF5, then transfecting 3T3 cells with the construct, and culturing the transfectants in the presence of G418 for 2 weeks to clone G418 resistant cells, control cells not containing KLF5 which were prepared in the same manner are referred to as 3T3-mock cells), were seeded in DMEM medium containing 10% FBS and penicillin G/streptomycin at a rate of 1×10^5 cells/well (6-well plate) and cultured overnight at 37° C. in a 5% CO2 incubator, and then the medium was changed to DMEM medium containing penicillin G/streptomycin (serum-free). The cells were added with NIK-333 dissolved in DMSO after 2 hours, cultured for 24 hours, and then counted.

[5] = biological target: T1, transcription factor KLF5 (PDGF-A promoter activation under overexpression of RARγ) (Homo sapiens, UniProt Q13887); test: Luciferase assay of KLF5-dependent PDGF-A promoter activation, COS1 cells cotransfected with KLF5 and RARγ; format: cell-based; conditions: Example 1-2
T1 construct: expressed in transfected cells; host or cells: COS1 cells
T1 sequence (P13631 whole entry partner): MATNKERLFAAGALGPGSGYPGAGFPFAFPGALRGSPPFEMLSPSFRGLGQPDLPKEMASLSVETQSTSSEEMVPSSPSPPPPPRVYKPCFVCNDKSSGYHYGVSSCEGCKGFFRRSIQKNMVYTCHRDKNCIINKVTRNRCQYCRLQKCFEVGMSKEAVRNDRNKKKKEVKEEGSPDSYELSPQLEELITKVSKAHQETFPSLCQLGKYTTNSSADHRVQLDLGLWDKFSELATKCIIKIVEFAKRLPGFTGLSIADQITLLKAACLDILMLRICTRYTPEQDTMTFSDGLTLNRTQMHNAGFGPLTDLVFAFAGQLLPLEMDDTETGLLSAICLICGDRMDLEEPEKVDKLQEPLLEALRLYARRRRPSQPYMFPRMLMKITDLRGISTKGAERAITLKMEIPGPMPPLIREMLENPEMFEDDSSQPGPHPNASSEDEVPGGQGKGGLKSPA
T1 sequence (Q13887 whole entry): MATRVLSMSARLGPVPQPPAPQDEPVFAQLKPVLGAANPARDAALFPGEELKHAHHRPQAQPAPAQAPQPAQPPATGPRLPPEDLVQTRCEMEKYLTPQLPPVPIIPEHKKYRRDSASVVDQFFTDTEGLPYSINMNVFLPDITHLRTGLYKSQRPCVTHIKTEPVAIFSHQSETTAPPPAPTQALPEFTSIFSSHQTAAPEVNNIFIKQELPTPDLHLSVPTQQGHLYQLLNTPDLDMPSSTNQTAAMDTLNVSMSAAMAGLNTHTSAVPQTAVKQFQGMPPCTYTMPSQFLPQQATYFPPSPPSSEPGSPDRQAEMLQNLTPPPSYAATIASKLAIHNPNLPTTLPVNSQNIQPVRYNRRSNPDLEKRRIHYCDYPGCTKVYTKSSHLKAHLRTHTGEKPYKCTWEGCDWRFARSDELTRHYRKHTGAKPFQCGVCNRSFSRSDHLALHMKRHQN
Method: (§2) COS1 cells were seeded on a 24-well plate at a rate of 5×10^4 cells/well and cultured overnight at 37° C. in a 5% CO2 incubator. Transfection was performed by using TransFast (registered trade name, Promega) transfection reagent according to the protocol attached to the reagent. Specifically, the cells were added with pCAG/KLF5 or empty vector thereof (pCAG), pRSh/RARα, pRSh/RARβ, pRSh/RARγ or empty vector thereof (pRS-RSV) and PDGF-A promoter (−900)-Luciferase and cultured at 37° C. in a 5% CO2 incubator for 48 hours. NIK-333 was dissolved in dimethyl sulfoxide (DMSO); and added at 10^−12 to 10^−5 M. Then, a luciferase assay was performed by using Dual Luciferase Reporter Assay System (Promega). […] This KLF5-dependent PDGF-A promoter activation under overexpression of RARα was inhibited by NIK-333 (Lanes 5 to 12). […] On the other hand, it was noted that the KLF5-dependent PDGF-A promoter activation action under overexpression of RARβ was not affected by NIK-333.

[6] = test system: 3T3-mock cells; test: Growth of control cells not containing KLF5 (living cell count); format: cell-based; conditions: for living cell count: 10^−8 to 10^−5 M, 24 hours, serum-free, FIG. 5
Method: as §1

[7] = biological target: T2, transcription factor KLF5 (PDGF-A promoter activation under overexpression of RARα) (Homo sapiens, UniProt Q13887); test: Luciferase assay of KLF5-dependent PDGF-A promoter activation, COS1 cells cotransfected with KLF5 and RARα; format: cell-based
T2 construct: expressed in transfected cells; host or cells: COS1 cells
T2 sequence (P10276 whole entry partner): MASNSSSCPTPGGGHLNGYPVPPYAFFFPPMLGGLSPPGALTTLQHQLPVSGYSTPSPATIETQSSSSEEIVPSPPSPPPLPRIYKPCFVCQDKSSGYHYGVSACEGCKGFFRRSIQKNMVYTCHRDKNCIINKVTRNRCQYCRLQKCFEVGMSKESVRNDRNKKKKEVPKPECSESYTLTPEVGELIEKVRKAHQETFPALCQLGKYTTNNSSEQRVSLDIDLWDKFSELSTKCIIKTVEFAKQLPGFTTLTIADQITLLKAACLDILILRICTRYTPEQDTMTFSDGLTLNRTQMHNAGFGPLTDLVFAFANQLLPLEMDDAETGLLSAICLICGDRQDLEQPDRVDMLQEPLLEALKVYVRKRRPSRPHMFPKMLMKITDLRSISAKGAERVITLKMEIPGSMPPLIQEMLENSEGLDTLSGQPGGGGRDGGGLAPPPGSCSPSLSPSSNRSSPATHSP
T2 sequence (Q13887 whole entry): as the sequence (Q13887 whole entry) above
Method: COS1 cells were seeded on a 24-well plate at a ratio of 5×10^4 cells/well and cultured at 37° C. in a 5% CO2 incubator for 12 hours. Transfection was performed by using TransFast (registered trade name, Promega) transfection reagent according to the protocol attached to the reagent. Specifically, the cells were added with pCAG/KLF5 or empty vector thereof (pCAG), pCMX/RARα or empty vector thereof (pCMX) and PDGF-A promoter (−900)-Luciferase and cultured at 37° C. in a 5% CO2 incubator for 48 hours. NIK-333 was dissolved in dimethyl sulfoxide (DMSO), and added at 10^−7 to 10^−5 M. Then, a luciferase assay was performed by using Dual Luciferase Reporter Assay System (Promega). In contrast to the transfection of the empty vector for KLF5 and the empty vector for RARα (Lane 1), the transfection of the KLF5 gene alone (Lane 2) and transfection of the RARα gene alone (Lane 3), the transfection of the KLF5 and RARα genes (Lane 4) activated the PDGF-A promoter. This KLF5-dependent PDGF-A promoter activation action under overexpression of RARα was inhibited by NIK-333 (Lanes 5 to 7).
as §2

[8] = biological target: T3, transcription factor KLF5 (PDGF-A promoter activation under overexpression of RARβ) (Homo sapiens, UniProt Q13887); test: Luciferase assay of KLF5-dependent PDGF-A promoter activation, COS1 cells cotransfected with KLF5 and RARβ; format: cell-based; conditions: Example 1-2, FIG. 3
T3 construct: expressed in transfected cells; host or cells: COS1 cells
T3 sequence (Q13887 whole entry): as above
Method: as §2

[9] = test system: vascular intimal hyperplasia resulted from vascular injury due to the cuff; test: Mouse cuff-induced injury model, Example 3-1 (HE staining); format: in vivo, C57BL6/N mice; conditions: for I/M ratio: HE staining, 5 weeks after cuff
Method: Vascular remodeling analysis was performed by using a cuff-induced injury model. Usefulness of this model in relation to vascular remodeling has been reported (Physiol. Genomics, 2, pp.13-30, 2000; Circulation, 104, pp.2716-2721, 2001; Circulation, 106, pp.847-853, 2002). For this experiment, 8-week old male C57BL6/N mice (10 animals/group) were used. In an amount of 50 mg/kg of NIK-333 dissolved in soybean oil was orally given once a day and every day from 7 days before placement of a cuff (placement of polyethylene tube around blood vessel) to the day before sacrifice. The control group received soybean oil alone in the same manner. After the 7-day pretreatment, the right femoral artery was covered with PE50 (polyethylene tube 50) as a cuff. The animals were sacrificed after 5 weeks. Blood was collected, and the cuff was removed under perfusion fixation via puncture of the left ventricle. For pathological evaluation, hematoxylin/eosin (HE) staining was performed. As a result, the ratio of I/M (intima/media) in vascular intimal hyperplasia resulted from vascular injury due to the cuff decreased in the NIK-333 treatment group compared with the control group.

[10] = clinical; N. Eng. J. Med., 334, pp.1561-1567, 1996; cited from earlier work
[11] = test system: hepatoma recurrence; conditions: clinical; long-term administration over one year; N. Eng. J. Med., 334, pp.1561-1567, 1996; cited from earlier work
[12] = test system: KLF5; conditions: reporter assay using cells; Nature Medicine, 8, pp.856-863, 2002; cited from earlier work
[13] = test system: neointimal formation in injured blood vessels; conditions: administered to wild type mice; Nature Medicine, 8, pp.856-863, 2002; cited from earlier work
[14] = 50 mg/kg orally once daily for 5 weeks
[15] = 100 mg/kg orally once daily for 5 weeks

SMILES: CC(C)=CCC/C(C)=C/CC/C(C)=C/C=C/C(C)=C/C(=O)O [NIK-333, (2E,4E,6E, 10E)-3,7,11,15-Tetramethyl-2,4,6,10,14-hexadecapentanoic acid]
- I/M ratio (mean ± S.D.) ([1]; 100 mg/kg orally once daily): 0.38 ± 0.2
- I/M ratio (mean ± S.D.) ([1]; 200 mg/kg orally once daily): 0.09 ± 0.1
- ratio of I/M (intima/media) compared with the control group ([1]; NIK-333 100 or 200 mg/kg): decreased
- concentration from which cell growth was inhibited in a concentration dependent manner ([2]; 3T3 cells): ≥ 10^−7 M
- cell growth inhibitory action compared with ATRA ([2]; 3T3 cells, FIG. 4): more potent than that of ATRA
- cell growth of 3T3 cells (living cell count) ([2]; 10^−7 to 10^−4 M, 24, 36 and 48 hours, FIG. 4): inhibited cell growth in a concentration dependent manner
- Body weight [3, 14]: 20.8 ± 0.3 g
- Weight of both testes [3, 14]: 0.1465 ± 0.0043 g
- Body weight [3, 15]: 21.2 ± 0.3 g
- Weight of both testes [3, 15]: 0.1360 ± 0.0026 g
- body weight compared with the control group ([3]; 50 or 100 mg/kg, 5 weeks): no difference was observed
- testes weight compared with the control group ([3]; 50 or 100 mg/kg, 5 weeks): no difference was observed
- visual observation of the testes ([3]; 50 or 100 mg/kg, 5 weeks): no abnormal finding was observed
- action on living cell count compared with ATRA ([4]; 3T3-KLF5 cells): more potent than that of ATRA
- living cell count ([4]; 3T3-KLF5 cells): decrease of the living cell count was observed in a concentration-dependent manner
- survival rate of 3T3-KLF5 cells versus 3T3-mock cells ([4]; after the addition of NIK-333): the survival rate of the 3T3-KLF5 cells was higher than that of the 3T3-mock cells
- KLF5-dependent activation of the PDGF-A promoter under overexpression of RARγ ([5]; COS1 cells, FIG. 3): inhibited
- inhibitory action compared with ATRA ([5]; RARγ): more potent than that of ATRA
- action on living cell count compared with ATRA [6]: more potent than that of ATRA
- living cell count [6]: decrease of the living cell count was observed in a concentration-dependent manner
- KLF5-dependent PDGF-A promoter activation action under overexpression of RARα ([7]; Example 1-1, COS1 cells, 10^−7 to 10^−5 M, FIG. 1): inhibited
- concentration from which the action showed concentration dependency ([7]; Example 1-1, COS1 cells, RARα): ≥ 10^−7 M
- KLF5-dependent PDGF-A promoter activation under overexpression of RARα ([7]; Example 1-2, COS1 cells, 10^−12 to 10^−5 M, FIG. 2): inhibited
- concentration from which the inhibitory action was significantly concentration-dependent ([7]; Example 1-2, COS1 cells, RARα): ≥ 10^−10 M
- inhibitory action compared with ATRA ([7]; Example 1-2, RARα): more potent than that of all-trans-retinoic acid (ATRA)
- KLF5-dependent PDGF-A promoter activation action under overexpression of RARβ [8]: not affected
- I/M ratio ([9]; 50 mg/kg orally once a day): 0.87 ± 0.29
- I/M ratio ([9]; 100 mg/kg): 0.75 ± 0.31
- ratio of I/M (intima/media) compared with the control group ([9]; NIK-333 treatment group, Example 3-1): decreased
- liver function failure and adverse side effects observed with other retinoids [10]: does not substantially induce
- recurrence of hepatoma after radical treatment [11]: significantly inhibited

SMILES: CC1=C(/C=C/C(C)=C/C=C/C(C)=C/C(=O)O)C(C)(C)CCC1 [ATRA, all-trans-retinoic acid, reference compound]
- I/M ratio (mean ± S.D.) ([1]; 5 mg/kg orally once daily): 0.64 ± 0.3
- I/M ratio (mean ± S.D.) ([1]; 10 mg/kg orally once daily): 0.63 ± 0.2
- ratio of I/M (intima/media) compared with the control group ([1]; ATRA 5 or 10 mg/kg): no difference was observed
- living cell count ([4]; 3T3-KLF5 cells): decrease of the living cell count was observed in a concentration-dependent manner
- living cell count [6]: decrease of the living cell count was observed in a concentration-dependent manner

SMILES: CC1(C)CCC(C)(C)c2cc(NC(=O)c3ccc(C(=O)O)cc3)ccc21 [Am80]
- transcription of PDGF-A induced by KLF5 [12]: inhibited
- neointimal formation in injured blood vessels [13]: inhibited
